Results published in the METLIN SMRT retention time set (Domingo-Almenara et al. 2019).

Assay: gradient 5% acetonitrile 3 min, to 50% in 2 min, to 85% in 15 min, held 3 min, 100 µL/min
Details: column: Zorbax Extend-C18 2.1 x 50 mm; eluents: water / acetonitrile, 0.1% formic acid
How it was run: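 Retention time was recorded from adduct peaks, which were picked computationally and each inspected manually. Pure standards ran in mixtures of ~100 molecules on HPLC coupled to a quadrupole time-of-flight mass spectrometer, in positive and negative ionization mode, through a Zorbax Extend-C18 column (2.1 × 50 mm, 1.8 μm) at 100 μL/min. Eluents were water and acetonitrile, each with 0.1% formic acid.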

Row | Structure (SMILES) | RP-LC retention time [s]
1 | Cc1ccc(Cl)cc1NC(=O)C(C)n1cnc2nc3c(cc2c1=O)CCCC3 (stereo not drawn) | 809
2 | COC(=O)C1=CN(CC(=O)N2CCN(c3ccc(F)cc3)CC2)S(=O)(=O)N=C1C | 878
3 | Cc1cc(-n2nnc(C(=O)O)c2C)ccc1F | 705
4 | CCCNC(=O)CCc1nc2ccccc2n(CC(=O)Nc2ccc(CC)cc2)c1=O | 852
5 | Cc1cc(SCC(=O)N2CCCc3ccccc32)ncn1 | 771
6 | CCn1nccc1C(=O)NCCn1c(C)cnc1C1CCC1 | 574
7 | CCN1C(=O)CCc2cc(NC(=O)c3ccnn3C)ccc21 | 677
8 | Cc1ccc(F)cc1S(=O)(=O)N1CCC(N2CCN(Cc3ccccc3)C(=O)C2=O)CC1 | 883
9 | COc1ccc(-c2cc(C(F)(F)F)n3nc(C(=O)O)c(Cl)c3n2)cc1OC | 855
10 | CCc1nc(N)n(CC(=O)Nc2ccc(Cl)cc2)c(=O)c1C | 661
11 | O=C(Cc1ccccc1Br)NC1CCN(c2cc(-c3ccc(Cl)cc3)[nH]n2)C1 (stereo not drawn) | 831
12 | COc1ccc(N2C(=O)CCC(C(=O)NC(C)C)C2c2ccc(OC)c(OC)c2)cc1 (stereo not drawn) | 674
13 | Cc1nn(-c2ccc(-c3ccccc3)nn2)c(C)c1S(=O)(=O)N1CCN(C2CCCCC2)CC1 | 733
14 | Cc1ccsc1C(=O)N1CCC(N2C[C@H](O)C[C@H]2C(=O)NC2CCCCC2)CC1 | 631
15 | Cc1cccc(Sc2nccnc2N2CCC(C(=O)NCCCc3ccccc3)CC2)c1 | 1140
16 | CCCCn1cc(S(=O)(=O)Nc2ccc(F)cc2Cl)c2cccnc21 | 862
17 | Cc1ncc2c(n1)CCCN(CC(=O)N1CCCC1)C2=O | 579
18 | Cc1ccccc1NC(=O)C(=O)Nc1ccccc1C | 1080
19 | Cn1cccc1-c1noc(C2CCN(S(=O)(=O)c3ccc4c(c3)OCCO4)CC2)n1 | 1000
20 | CCCCOc1ccc(C(=O)Nc2nc3c(s2)CCc2ccc(OC)cc2-3)cc1 | 1360
21 | CCN(CC)CCNC(=O)CN1C(=O)C2CCCCN2c2ccc(C(=O)N(C)C)cc21 (stereo not drawn) | 601
22 | Cc1cccc(NC(=O)c2ccc(=O)n(Cc3ccc(F)cc3)n2)n1 | 800

Row | Structure (SMILES) | RP-LC retention time [s]
23 | CCOC(=O)c1nc(NCc2ccccc2OC)c2c(CC)noc2n1 | 943
24 | CCN(CC)C(=O)c1ccc(-c2nc3cc(NS(=O)(=O)c4ccccc4Cl)ccc3n2C)cc1 | 695
25 | CCOC(=O)c1ccc(Nc2c(-c3ccccc3)nc3cnccn23)cc1 | 849
26 | O=C(NCc1ccc2c(c1)OCO2)C1CCN(C(=O)c2ncn3c2COC(c2ccccc2)C3)CC1 (stereo not drawn) | 752
27 | CN(C)c1ccc(C(=O)Nc2cnc(N3CCCC3)nc2)cc1 | 702
28 | COc1ccc(N2CCN(c3cc(SCC(=O)Nc4c(C)cc(C)cc4C)ncn3)CC2)cc1 | 983
29 | CCOc1ccccc1CNC(=O)C1CCCN(c2ccc(=O)n(-c3ccc(CC)cc3)n2)C1 (stereo not drawn) | 978
30 | CCn1cc(-c2ccc(OC)cc2)cc1C(=O)N(C)C | 842
31 | COc1ccc(C(=O)N2CCC3(CC2)NC(=O)c2ccc(F)cc2N3C)cc1OC | 698
32 | COC(=O)c1ccc2c(=O)n(-c3ccc(C)c(F)c3)c(N3CCN(c4ccccn4)CC3)nc2c1 | 714
33 | Cn1cc(CCN2CCN(S(=O)(=O)c3cccc(Cl)c3)CC2)c2cccnc21 | 650
34 | Cc1ccn2cc(-c3cccc(S(=O)(=O)N4CC(C)CC(C)C4)c3)nc2c1 (stereo not drawn) | 784
35 | O=C(Cc1nnc(-c2ccc3ncccc3c2)o1)Nc1ccc(OC(F)(F)F)cc1 | 806
36 | CCOC(=O)c1c(C)[nH]c(C(=O)N2CCCC(C(=O)NCc3ccc4c(c3)OCO4)C2)c1C (stereo not drawn) | 770
37 | CCC(=O)N1CCc2cc(C(=O)NC3CC3)ccc21 | 650
38 | COc1ccc(NC(=O)N2c3ccccc3CC2c2nc(C(C)C)no2)c(OC)c1 (stereo not drawn) | 1080
39 | Cc1nn(CC(=O)NCCN2CCCCCC2)c(=O)c2nc(-c3ccccc3)sc12 | 657
40 | COC(=O)c1ccccc1Nc1c(-c2cccc(Br)c2)nc2cnccn12 | 1090
41 | Cc1ccc(-n2c(N3CCC(C(=O)NCCC(C)C)CC3)nc3ccsc3c2=O)cc1 | 890
42 | COCCNC(=O)c1csc(N2CCN(c3ccc(OC)cc3)CC2)n1 | 767
43 | CC(C)C(=O)Nc1cccn2nc(C(C)C)nc12 | 780
44 | CCN(CC)c1ccc(-c2noc(CN3CCN(c4cccc(C)c4)CC3)n2)cn1 | 865

Row | Structure (SMILES) | RP-LC retention time [s]
45 | COc1ccc(N2CCN(C(=O)C3CCCN(c4ccc(-c5ccccc5)nn4)C3)CC2)cc1 (stereo not drawn) | 711
46 | COc1ccc(Cl)cc1NC(=O)Nc1ccc2c(c1)C(=O)N(C)CCO2 | 766
47 | COc1ccccc1C(=O)N1CCC(COc2ccc(C(=O)NC(C)C)cc2)CC1 | 817
48 | Cc1ccc2c(c1)N(S(C)(=O)=O)CCC(C(=O)Nc1ccc(Cl)cc1C)O2 (stereo not drawn) | 1000
49 | CC[C@H](C)NC(=O)Cc1nnc(-c2ccccc2)o1 | 705
50 | Cc1ccc(N2N=C(C(=O)N3CCCC3)S(=O)(=O)c3cccnc32)cc1 | 830
51 | COc1ccc(OC)c(CNC(=O)c2c(C)sc3ccn(C)c(=O)c23)c1 | 688
52 | CCc1cc(C2CCCN2C(=O)Nc2ccc(OC)c(OC)c2)on1 (stereo not drawn) | 724
53 | CSc1cccc2sc(NCc3cccnc3)nc12 | 590
54 | CCOC(=O)N1CCC(NC(=O)CCc2cc3cc(OC)ccc3[nH]c2=O)CC1 | 663
55 | CCCN(C(=O)c1ccc(C)cc1)c1nc(-c2ccccc2)cs1 | 809
56 | C=CC(=O)Nc1cccc(Oc2nc(Nc3ccc(N4CCN(C)CC4)cc3)ncc2Cl)c1 | 695
57 | CCC1(C(=O)NCc2ccc(C)cc2)CCCCC(=O)N1 (stereo not drawn) | 707
58 | Cc1noc(C)c1CCC(=O)N1CCCC1CCc1ncc(C)n1CC1CC1 (stereo not drawn) | 662
59 | CCCCC(=O)Nc1nc(-c2ccc3c(c2)N(CC)C(=O)CO3)c(C)s1 | 982
60 | Cc1ccc(C)c(NC(=O)Cc2csc(C)n2)c1 | 788
61 | COc1ccccc1C1(CNC(=O)CSc2ccc(F)cc2)CCOCC1 | 853
62 | CCN(CC)S(=O)(=O)c1ccc2c(c1)CC(C(=O)N1CCN(c3ccccc3)CC1)N2C(C)=O (stereo not drawn) | 879
63 | O=C(Nc1ccc2c(c1)OCCO2)C1CCCN(C(=O)c2cc(-c3ccncc3)n[nH]2)C1 (stereo not drawn) | 584
64 | CCOc1ccc(CNC(=O)C2CCN(Cc3cn(C)c4ccccc34)CC2)cc1OCC | 708
65 | Cc1ccc(N2N=C(C(=O)NCCN3CCOCC3)S(=O)(=O)c3cc(F)ccc32)cc1 | 654
66 | Cc1ccc2[nH]cc(CCN3CC(C(=O)Nc4ccc(F)cc4F)CC3=O)c2c1 (stereo not drawn) | 835

Row | Structure (SMILES) | RP-LC retention time [s]
67 | O=S1(=O)C[C@H](N2CCN(c3ccccn3)CC2)[C@@H](S(=O)(=O)c2ccccc2)C1 | 598
68 | CCSc1ccccc1C(=O)NCc1nc(COc2ccc(OC)cc2)no1 | 848
69 | CCOC(=O)c1ccc(NC(=O)CCc2c(-c3ccc(Cl)cc3)nc3ccccn23)cc1 | 752
70 | CCOc1ccccc1C1NC(=O)N(CC(=O)Nc2ccc3c(c2)CCC3)C2=C1C(=O)OC2 (stereo not drawn) | 900
71 | Cn1c(=O)n(CCN2CCCCC2)c(=O)c2c1nc1n2CCCN1c1ccc(Cl)cc1 | 668
72 | Cc1cc(N2CCN(C(=O)CCCc3c[nH]c4ccccc34)CC2)nc2ccccc12 | 696
73 | Cc1ccc(NC(=O)N2CCC(CN3CCCC(C)C3)CC2)cc1 (stereo not drawn) | 613
74 | Cc1nn(CCC(=O)Nc2cccc(Cl)c2)c(=O)c2nn(-c3ccccc3)c(C)c12 | 867
75 | Cc1ccc(C2NC(=O)N(CC(=O)Nc3ccc(Br)cc3F)C3=C2C(=O)OC3)cc1 (stereo not drawn) | 861
76 | CC1CN(C(=O)CCC(=O)NCCCN2CCN(C3CCCCC3)CC2)c2ccccc2O1 (stereo not drawn) | 602
77 | COCCc1noc([C@@H]2CC(F)(F)CN2C(=O)c2coc(C)n2)n1 | 705
78 | COc1ccc(CNC2=NCCNC23CCN(S(=O)(=O)c2ccc(C)cc2C)CC3)cc1 | 775
79 | CCN1CCn2c(nc3cc(C(=O)NCc4ccc(Br)cc4)ccc32)C1=O | 704
80 | CN1C(=O)[C@H]2CN(Cc3ccccc3C#N)C[C@H]2C1=O | 650
81 | CCc1ccc(NS(=O)(=O)c2c(C)sc(C)c2-c2cc(C)[nH]n2)cc1 | 1130
82 | O=C(CN1CN(c2ccccc2)c2ncccc2S1(=O)=O)Nc1ccccc1Cl | 934
83 | COc1ccc(C2C(C(=O)N3CCCCCC3)c3cc(OC)c(OC)cc3C(=O)N2C)cc1OC (stereo not drawn) | 748
84 | COc1ccc(S(=O)(=O)N2CCCC(C(=O)Nc3ccc4c(c3)OCCO4)C2)cc1C (stereo not drawn) | 958
85 | COC(=O)c1ccc(Cl)cc1NC(=O)NCCCn1c(C(F)(F)F)nc2cccnc21 | 1020
86 | Cc1nc(-c2cn(C)c3ncccc23)sc1C(=O)Nc1ccccc1F | 922
87 | O=C(c1ccncn1)N1CC(F)(F)C[C@H]1COc1ccc2c(c1)CCC2 | 1020
88 | COc1ccc(CNC(=O)N2CCC3(C2)C(=O)N(C)c2ccccc23)cc1 (stereo not drawn) | 734
